Experimental data from BindingDB's records for patent US20250325711 (Hoffmann-La Roche, 2025).

biological target: Cannabinoid receptor 2 (Homo sapiens, UniProt P34972); experiment: Competition Binding Assay
Experimental: To determine the affinity of CB2R-specific ligands, we used a simple competition kinetic binding assay. This approach involves the simultaneous addition of both fluorescent ligand and competitor to the CB2R preparation. 62.5 nM 8-SiR, concentration which avoid ligand depletion in this assay volume, were added simultaneously with increasing concentrations of the unlabeled compound to CB2R cell membranes (4 μg per well) in 40 μL of assay buffer in a 384-well plate incubated at room temperature with orbital mixing. The degree of fluorescent ligand bound to the receptor was assessed at equilibrium by HTRF detection. Nonspecific binding was determined as the amount of HTRF signal detected in the presence of SR144528 (1 μM) and was subtracted from total binding, to calculate specific binding for construction of IC50 curves.

Sequence of Cannabinoid receptor 2 (P34972 whole entry): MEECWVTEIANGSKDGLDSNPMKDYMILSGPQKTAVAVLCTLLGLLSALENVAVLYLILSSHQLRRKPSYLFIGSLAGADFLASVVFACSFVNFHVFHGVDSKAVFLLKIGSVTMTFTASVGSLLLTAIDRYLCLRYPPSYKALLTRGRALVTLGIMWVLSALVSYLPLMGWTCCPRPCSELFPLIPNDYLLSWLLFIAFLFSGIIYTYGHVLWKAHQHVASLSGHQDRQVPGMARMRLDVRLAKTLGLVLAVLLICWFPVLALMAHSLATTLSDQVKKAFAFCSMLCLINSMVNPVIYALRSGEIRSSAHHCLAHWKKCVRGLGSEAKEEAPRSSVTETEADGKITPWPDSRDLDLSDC

Row | Compound | Kd
1 | COc1cc(C(C)(C)CCCCCCN=[N+]=[N-])cc(OC)c1[C@H]1C=C(CNC(=O)CCCCNC(=O)c2ccc(=O)n(S(=O)(=O)c3cccc(C(=O)NCCC4CN(CCOCCNc5ccc([N+](=O)[O-])c6nonc56)N=N4)c3)c2)[C@H]2C[C@@H]1C2(C)C (some centres not stated) [US20250325711, Example 1] | 9.1 nM
2 | COc1cc(C(C)(C)CCCCCCN=[N+]=[N-])cc(OC)c1[C@H]1C=C(CNC(=O)CCCCCCNC(=O)c2ccc(=O)n(S(=O)(=O)c3cccc(C(=O)NCC4CN(CCOCCNc5ccc([N+](=O)[O-])c6nonc56)N=N4)c3)c2)[C@H]2C[C@@H]1C2(C)C (some centres not stated) [US20250325711, Example 2] | 22.9 nM
3 | CCCCCCC(C)(C)c1cc(OC)c([C@H]2C=C(CNC(=O)CCCCCCNC(=O)c3ccc(=O)n(S(=O)(=O)c4cccc(C(=O)NCC5CN(CCOCCNc6ccc([N+](=O)[O-])c7nonc67)N=N5)c4)c3)[C@H]3C[C@@H]2C3(C)C)c(OC)c1 (some centres not stated) [US20250325711, Example 3] | 24.2 nM
4 | COc1cc(C(C)(C)CCCCCCN=[N+]=[N-])cc(OC)c1[C@H]1C=C(CNC(=O)CCCCCCNC(=O)c2ccc(=O)n(S(=O)(=O)c3cccc(C(=O)NCC4CN(CCOCCOCCOCCOCCNc5ccc([N+](=O)[O-])c6nonc56)N=N4)c3)c2)[C@H]2C[C@@H]1C2(C)C (some centres not stated) [US20250325711, Example 4] | 4.5 nM
5 | CCN(CC)c1ccc2c(c1)OC(=O)C(/C=C/c1ccc(S(=O)(=O)[O-])c[n+]1CCCCCC(=O)NCCOCCN1CC(CNC(=O)C3=CC(S(=O)(=O)N4CC(C(=O)NCCCCCCC(=O)NCC5=C[C@H](c6c(OC)cc(C(C)(C)CCCCCCN=[N+]=[N-])cc6OC)[C@@H]6C[C@H]5C6(C)C)C=CC4=O)CC=C3)N=N1)C2 (some centres not stated) [US20250325711, Example 5] | 59 nM
6 | COc1cc(C(C)(C)CCCCCCN=[N+]=[N-])cc(OC)c1[C@H]1C=C(CNC(=O)CCCCCCCCNC(=O)c2ccc(=O)n(S(=O)(=O)c3cccc(C(=O)NCC4CN(CCOCCNc5ccc([N+](=O)[O-])c6nonc56)N=N4)c3)c2)[C@H]2C[C@@H]1C2(C)C (some centres not stated) [US20250325711, Example 7] | 8.9 nM
7 | COc1cc(C(C)(C)CCCCCCN=[N+]=[N-])cc(OC)c1[C@H]1C=C(CNC(=O)CCCCCCNC(=O)c2ccc(S(=O)(=O)N(CC#N)C(=O)CCC3CN(CCOCCNc4ccc([N+](=O)[O-])c5nonc45)N=N3)cc2)[C@H]2C[C@@H]1C2(C)C (some centres not stated) [US20250325711, Example 11] | 152 nM
